Measured values from patent US11236102B2, “Oxabicycloheptane prodrugs” (Lixte Biotechnology, Inc., priority 2015, dated 2022).
“Also recorded” adds a separate entry of the source.

Tests used:
[1] = Whole blood stability (half-life) and metabolite formation; type: in vitro ADME, rat, dog, monkey and human; conditions: cross species
Protocol: The stability (whole blood, liver S9, SGF, SIF, and PBS buffer) and MDCK-MDR1 monolayer permeability of LB100, LB-100 Carbonate and LB-100 POM were evaluated.
Samples were analyzed by LC-MS/MS using a SCIEX QTrap 5500 mass spectrometer coupled with an Agilent 1290 HPLC Infinity series, a CTC PAL chilled autosampler, all controlled by Analyst software. After separation on a C18 reverse phase HPLC column (Acquity UPLC HSS T3, 1.8, 2.1×50 mm) using an acetonitrile-water gradient system, peaks were analyzed by mass spectrometry (MS) using […] ionization in MRM mode.
Whole Blood Stability: Experimental Conditions Experimental Procedure: The stock solution was first diluted in acetonitrile at a concentration that is 100× of the desired final concentration. It was incubated in duplicate with whole blood at 37° C. At indicated times, an aliquot was removed from each experimental and control reaction and mixed with three volumes of ice-cold Stop Solution (methanol containing propranolol as internal standard). Stopped reactions were incubated at least ten minutes at −20° C. The samples were centrifuged to remove precipitated protein, and the supernatants were analyzed by LC-MS/MS to quantitate the remaining parent and the formation of metabolites.
Data were converted to % remaining by dividing by the time zero concentration value. Data were fit to a first-order decay model to determine half-life.

[2] = Pharmacokinetic study of 100 (iv 0.5, 1.0, 1.5 mg/kg) in SD rats: 100 and endothal in plasma, liver, brain; type: in vivo; conditions: for Endothal brain concentration / Endothal plasma concentration: SD rats
Protocol: 100 was administrated via iv route at 0.5, 1.0 and 1.5 mg/kg into SD rats. The blood, liver and brain tissue samples were collected at predetermined times from rats.
Twelve (12) female SD rats per group were dosed by iv with 100. The rats were fasted overnight prior to dosing, with free access to water. Foods were withheld for 2 hours post-dose. Blood, liver and brain tissue samples in two animals each group were collected at each time point, within 10% of the scheduled time for each time point. Two extra animals were used for analytic method development. Blood (>0.3 mL) were collected via aorta abdominalis in anaesthetic animals into tubes containing heparin at 15 min, 1, 2, 6, 10 and 24 hours after iv administration. Liver and brain tissues were collected immediately after animal death. The liver and brain tissues were excised and rinsed with cold saline to avoid blood residual. Upon collection, each sample was placed on ice and the blood samples were subsequently centrifuged (4° C., 11000 rpm, 5 min) to separate plasma. The obtained plasma, liver and brain tissue samples were stored at −70° C. until LC-MS/MS analysis.
AUC0-∞ (AUCINF) is the area under the plasma concentration-time curve with last concentration extrapolated based on the elimination rate constant.

[3] = 100 iv 0.5 mg/kg, 24 hr, individual rats
[4] = female, Sprague-Dawley, rat, in vivo, iv, 1.5 mg/kg

In the case of COC(=O)C1C2CCC(O2)C1C(=O)N1CCN(C)CC1 (stereo not drawn) [Compound 151], the “metabolite formation in whole blood half-life study” value [1] is reported as “No metabolites were detected”.
In the case of O=C(O)C1C2CCC(O2)C1C(=O)O (stereo not drawn) [Endothal, 7-oxabicyclo[2.2.1]heptane-2,3-dicarboxylic acid], the Endothal brain concentration ([2]; 100 iv 0.5 mg/kg, 0.25 hr, individual rats) is reported as “BLQ”, the Endothal brain concentration ([2]; 100 iv 0.5 mg/kg, 0.25 hr, mean) is reported as “BLQ” and the Endothal brain concentration ([2]; 100 iv 0.5 mg/kg, 1 hr, individual rats) is reported as “BLQ”. For the same compound, the Endothal brain concentration ([2]; 100 iv 0.5 mg/kg, 1 hr, mean) was “BLQ”, the Endothal brain concentration ([2]; 100 iv 0.5 mg/kg, 2 hr, individual rats) was “BLQ” and the Endothal brain concentration ([2]; 100 iv 0.5 mg/kg, 2 hr, mean) was “BLQ”. The Endothal brain concentration ([2]; 100 iv 0.5 mg/kg, 6 hr, individual rats) was “BLQ”, the Endothal plasma concentration ([2]; 100 iv 0.5 mg/kg, 6 hr, individual rats, 0.5 mg/kg) was “BLQ” and the Endothal brain concentration ([2]; 100 iv 0.5 mg/kg, 6 hr, mean) was “BLQ”. For the same compound, the Endothal brain concentration ([2]; 100 iv 0.5 mg/kg, 10 hr, individual rats) was “BLQ”, the Endothal brain concentration ([2]; 100 iv 0.5 mg/kg, 10 hr, mean) was “BLQ” and the Endothal brain concentration [2, 3] was “BLQ”. The Endothal plasma concentration [2, 3] was “BLQ”, the Endothal brain concentration ([2]; 100 iv 0.5 mg/kg, 24 hr, mean) was “BLQ” and the Endothal plasma concentration ([2]; 100 iv 0.5 mg/kg, 24 hr, mean) was “BLQ”. For the same compound, the Endothal brain concentration ([2]; 100 iv 1.0 mg/kg, 0.25 hr, individual rats) was “BLQ”, the Endothal brain concentration ([2]; 100 iv 1.0 mg/kg, 0.25 hr, mean) was “BLQ” and the Endothal brain concentration ([2]; 100 iv 1.0 mg/kg, 1 hr, individual rats) was “BLQ”. For the same compound, the Endothal brain concentration ([2]; 100 iv 1.0 mg/kg, 1 hr, mean) was “BLQ”, the Endothal brain concentration ([2]; 100 iv 1.0 mg/kg, 2 hr, individual rats) was “BLQ” and the Endothal brain concentration ([2]; 100 iv 1.0 mg/kg, 2 hr, mean) was “BLQ”. For the same compound, the Endothal brain concentration ([2]; 100 iv 1.0 mg/kg, 6 hr, individual rats) was “BLQ”, the Endothal brain concentration ([2]; 100 iv 1.0 mg/kg, 6 hr, mean) was “BLQ” and the Endothal brain concentration ([2]; 100 iv 1.0 mg/kg, 10 hr, individual rats) was “BLQ”. The Endothal brain concentration ([2]; 100 iv 1.0 mg/kg, 10 hr, mean) was “BLQ”, the Endothal brain concentration ([2]; 100 iv 1.0 mg/kg, 24 hr, individual rats) was “BLQ” and the Endothal brain concentration ([2]; 100 iv 1.0 mg/kg, 24 hr, mean) was “BLO”. The Endothal brain concentration ([2]; 100 iv 1.5 mg/kg, 0.25 hr, individual rats) was “BLQ”, the Endothal brain concentration ([2]; 100 iv 1.5 mg/kg, 0.25 hr, mean) was “BLQ” and the Endothal brain concentration ([2]; 100 iv 1.5 mg/kg, 1 hr, individual rats) was “BLQ”. The Endothal brain concentration ([2]; 100 iv 1.5 mg/kg, 1 hr, mean) was “BLQ”, the Endothal brain concentration ([2]; 100 iv 1.5 mg/kg, 2 hr, individual rats) was “BLQ” and the Endothal brain concentration ([2]; 100 iv 1.5 mg/kg, 2 hr, mean) was “BLQ”. For the same compound, the Endothal brain concentration ([2]; 100 iv 1.5 mg/kg, 6 hr, individual rats) was “BLQ”, the Endothal brain concentration ([2]; 100 iv 1.5 mg/kg, 6 hr, mean) was “BLQ” and the Endothal brain concentration ([2]; 100 iv 1.5 mg/kg, 10 hr, individual rats) was “BLQ”. For the same compound, the Endothal brain concentration ([2]; 100 iv 1.5 mg/kg, 10 hr, mean) was “BLQ”, the Endothal brain concentration ([2]; 100 iv 1.5 mg/kg, 24 hr, individual rats) was “BLQ” and the Endothal brain concentration ([2]; 100 iv 1.5 mg/kg, 24 hr, mean) was “BLQ”. For the same compound, the half-life ([2]; Sprague-Dawley, rat, in vivo) was about 6 h, the “detectability in brain samples” value ([2]; endothal after single iv 100 at 0.5, 1.0 and 1.5 mg/kg) was “not detectable; also recorded: undetectable” and the AUClast in plasma [2, 4] was 546 to 4476 ng·h/mL. For the same compound, the Cmax [2, 4] was 349 to 2960 ng/g, the T1/2 in liver [2, 4] was 4.57 to 10.1 h and the T1/2 in plasma [2, 4] was 6.25 to 7.06 h. The “mean Cmax in plasma” value [2, 4] was 577 to 1230 ng/mL and the AUClast in liver ([2]; rat, in vivo, iv, 1.5 mg/kg) was 2598 to 18434 ng·h/g.
